The values below come from patent EP2388012A1 (Roehampton University, priority 2010, dated 2011).

The subject of test [1] is biotinylated IAPP 1-37 to the Kissorphin-6 peptide. The test is classed as binding, human.
In test [2] the test system is biotinylated PrP 106-126 to the Kissorphin-6 peptide.
Test [3] deals with biotinylated Aß 1-42 to the Kissorphin-6 peptide. The class given is binding, human.
A further test deals with Aß 1-42 fibrils. The class given is binding, human.
The test system of another test is Aß 25-35 fibrils. The class given is binding, human.
The subject of another test is Amyloid-Dan fibrils. The test is classed as binding, human.
For a further test, the system named is IAPP 1-37 fibrils. The test is classed as binding, human.
The next test concerns Amyloid-Bri fibrils. The test is classed as binding, human.
The next test deals with IAPP 20-29 fibrils. The class given is binding, human.
In test [4] the test system is mouse LHRH secreting cell line (GT1). The class given is cell-based.
In test [5] the test system is human neuroblastoma SH-SY5Y cell line. The test is classed as cell-based.
In test [6] the target is GPR-54 G-protein coupled receptor (mouse) (UniProt Q91V45). Briefly: cell-based or functional assay.
Another test has as its system Aß 1-42. The test is classed as binding, human. The conditions noted are these: 4°C 16 hours.
The subject of another test is IAPP 1-37. The class given is binding, human. The conditions noted are these: 4°C 16 hours.
Test [7] has as its target T1, GPR-54 G-protein coupled receptor (mouse), Q91V45.
T1 chain: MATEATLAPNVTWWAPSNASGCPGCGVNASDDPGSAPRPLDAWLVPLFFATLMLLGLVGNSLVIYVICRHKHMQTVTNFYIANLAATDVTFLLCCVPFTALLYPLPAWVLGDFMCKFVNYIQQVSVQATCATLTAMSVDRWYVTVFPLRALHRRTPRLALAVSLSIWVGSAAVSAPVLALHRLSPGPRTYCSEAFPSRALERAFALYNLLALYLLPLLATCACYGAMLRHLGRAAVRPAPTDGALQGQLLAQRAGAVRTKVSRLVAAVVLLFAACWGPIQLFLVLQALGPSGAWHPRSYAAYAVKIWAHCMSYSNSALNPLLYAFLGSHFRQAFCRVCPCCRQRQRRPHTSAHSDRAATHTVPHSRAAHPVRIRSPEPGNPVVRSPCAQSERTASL
Put plainly: cell-based or functional assay.

Where no end group is shown, it is not given here. The star is where a group is joined. Biotin = O=C1N[C@H]2[C@H](CS[C@H]2CCCCC(=O)*)N1

On to “Aß 1-28: Aß fragment, unlabelled competitor”, for which the “effect on binding of biotinylated IAPP 1-37 to the Kissorphin-6 peptide” value in test [1] is “no effect”. Also, in [2], the “effect on binding of biotinylated PrP 106-126 to the Kissorphin-6 peptide” value is recorded as “no effect”. Further, in [3], the “effect on binding of biotinylated Aß 1-42 to the Kissorphin-6 peptide” value is listed as “no effect”.
On to “Aß 25-35: Aß fragment, functional neurotoxic domain (GSNKGAIIGLM)”, for which the “effect on binding of biotinylated IAPP 1-37 to the Kissorphin-6 peptide” value in [1] is “strongly inhibited”. In addition, in [2], the “effect on binding of biotinylated PrP 106-126 to the Kissorphin-6 peptide” value is “strongly inhibited”. Also, the “effect on binding of biotinylated Aß 1-42 to the Kissorphin-6 peptide” value in [3] is listed as “strongly inhibited”.
For the molecule “Aß 29-40: Aß fragment, unlabelled competitor (GAIIGLMVGGVV; Amyloid-beta protein 40; UniProt P05067 700-711, looked up, fragment)”, the “effect on binding of biotinylated IAPP 1-37 to the Kissorphin-6 peptide” value in [1] is reported as “strongly inhibited”. For the same molecule, the “effect on binding of biotinylated PrP 106-126 to the Kissorphin-6 peptide” value in [2] is recorded as “strongly inhibited”. The “effect on binding of biotinylated Aß 1-42 to the Kissorphin-6 peptide” value in test [3] is “strongly inhibited”.
“Aß 31-35: Aß fragment, the shortest cytotoxic form of Aß (IIGLM; Amyloid-beta protein 40; UniProt P05067 702-706, looked up, fragment)”: the “effect on binding of biotinylated IAPP 1-37 to the Kissorphin-6 peptide” value in test [1] is recorded as “no effect”. In addition, the “effect on binding of biotinylated PrP 106-126 to the Kissorphin-6 peptide” value in test [2] is reported as “no effect”. In test [3], the “effect on binding of biotinylated Aß 1-42 to the Kissorphin-6 peptide” value was “no effect”.
Regarding “Biotinylated Kisspeptin-10: N-terminally Biotinylated Kisspeptin-10, purchased from Bachem or Alpha Diagnostics”, the “binding to plates coated with PrP 106-126 fibrils” value in the test on PrP 106-126 fibrils is recorded as “bound”. The “binding to plates coated with Aß 1-42 fibrils” value in the test on Aß 1-42 fibrils is given as “bound”. In addition, the “binding to plates coated with Aß 25-35 fibrils” value in the test with Aß 25-35 fibrils is given as “bound”. Also, the “binding to Amyloid-Dan fibrils” value in the test with Amyloid-Dan fibrils is on record as “No binding”. Also, the “binding to plates coated with IAPP 1-37 fibrils” value with IAPP 1-37 fibrils is given as “bound”. Also, the “binding to plates coated with PrP 118-135 fibrils” value with PrP 118-135 fibrils is given as “bound”. Besides, the “binding to Amyloid-Bri fibrils” value in the test on Amyloid-Bri fibrils is listed as “No binding”. Further, the “binding to plates coated with IAPP 20-29 fibrils” value in the test on IAPP 20-29 fibrils was “bound”.
As to “Biotinylated Kisspeptin-54: N-terminally Biotinylated Kisspeptin-54, purchased from Bachem or Alpha Diagnostics (Biotin-GTSLSPPPESSGSPQQPGLSAPHSRQIPAPQGAVLVQREKDLPNYNWNSFGLRF; ends and bridges not checked; UniProt Q15726 68-121, looked up)”, in the test with PrP 106-126 fibrils, the “binding to plates coated with PrP 106-126 fibrils” value is reported as “bound”. In addition, in the test with Aß 1-42 fibrils, the “binding to plates coated with Aß 1-42 fibrils” value is “bound”. For the same molecule, the “binding to plates coated with Aß 25-35 fibrils” value with Aß 25-35 fibrils is “bound”. Also, the “binding to Amyloid-Dan fibrils” value with Amyloid-Dan fibrils is reported as “No binding”. Also, in the test on IAPP 1-37 fibrils, the “binding to plates coated with IAPP 1-37 fibrils” value is “bound”. Moreover, the “binding to plates coated with PrP 118-135 fibrils” value in the test with PrP 118-135 fibrils is “bound”. For the same molecule, the “binding to Amyloid-Bri fibrils” value in the test on Amyloid-Bri fibrils is “No binding”. In the test on IAPP 20-29 fibrils, the “binding to plates coated with IAPP 20-29 fibrils” value is reported as “bound”.
Regarding “Kissorphin-6 (3-6): shorter sequence, SEQ ID No. 11, residues 3-6 of Kissorphin-6 (WNSF)”, in test [4], the “effect on Kisspeptin-10 stimulated release of immunoreactive LHRH” value is given as “no significant effect” and the “effect on Kisspeptin-13 stimulated release of immunoreactive LHRH” value is listed as “no significant effect”. Further, in [5], the “effect on toxicity of Aß 1-42” value was “significantly inhibited”, the “effect on toxicity of Aß 25-35” value was “significantly inhibited”, the “effect on toxicity of IAPP 1-37” value is “no effect” and the “effect on toxicity of IAPP 20-29” value is on record as “no effect”. In test [5], the “effect on toxicity of PrP 106-126” value is “no effect”, the “effect on toxicity of PrP 118-135” value was “no effect”, the “effect on toxicity of the Amyloid-Bri peptide” value is “unaffected” and the “effect on toxicity of the Amyloid-Dan peptide” value is recorded as “unaffected”.
In test [6], Kisspeptin-10 (peptide) returned an LHRH release from mouse GT1 cells of 4 fold.
In the case of “Kisspeptin-54 (27-54): fragment 27-54 of Kisspeptin-54 (IPAPQGAVLVQREKDLPNYNWNSFGLRF)”, in the test with PrP 106-126, the “binding of biotinylated PrP 106-126 to peptide coated plates” value was “significant binding”. Besides, the “binding of biotinylated Aß 1-42 to peptide coated plates” value in the test on Aß 1-42 was “significant binding”. In addition, in the test on IAPP 1-37, the “binding of biotinylated IAPP 1-37 to peptide coated plates” value is “significant binding”. Besides, in [5], the “effect on toxicity of Aß 1-42” value is “significantly inhibited”, the “effect on toxicity of Aß 25-35” value was “significantly inhibited”, the “effect on toxicity of IAPP 1-37” value was “significantly inhibited” and the “effect on toxicity of IAPP 20-29” value was “significantly inhibited”. Besides, in test [5], the “effect on toxicity of PrP 106-126” value was “significantly inhibited”, the “effect on toxicity of PrP 118-135” value is “significantly inhibited”, the “effect on toxicity of the Amyloid-Bri peptide” value is “unaffected” and the “effect on toxicity of the Amyloid-Dan peptide” value was “unaffected”.
In the case of “Kisspeptin-54: the 54 amino acid form of Kisspeptin, peptide derived from the Kiss1 gene, ligand for GPR-54 (SEQ ID No. 1)”, in the test on PrP 106-126, the “binding of biotinylated PrP 106-126 to peptide coated plates” value is recorded as “significant binding”. Besides, the “binding of biotinylated Aß 1-42 to peptide coated plates” value in the test on Aß 1-42 was “significant binding”. The “binding of biotinylated IAPP 1-37 to peptide coated plates” value in the test on IAPP 1-37 was “significant binding”. Moreover, in [5], the “effect on toxicity of Aß 1-42” value is given as “significantly inhibited”, the “effect on toxicity of Aß 25-35” value is on record as “significantly inhibited”, the “effect on toxicity of IAPP 1-37” value was “significantly inhibited” and the “effect on toxicity of IAPP 20-29” value was “significantly inhibited”. In test [5], the “effect on toxicity of PrP 106-126” value was “significantly inhibited”, the “effect on toxicity of PrP 118-135” value is reported as “significantly inhibited”, the “effect on toxicity of the Amyloid-Bri peptide” value is given as “unaffected” and the “effect on toxicity of the Amyloid-Dan peptide” value is “unaffected”.
Take KTNMKHMAGAAAAGAVVGGLG (modifications not checked) [PrP 106-126]: in the test with Kissorphin-6 (human), the Kd turned out to be 34.2 nM.
KCNTATCATQRLANFLVHSSNNFGAILSSTNVGSNTY (modifications not checked) [IAPP 1-37] yielded a Kd with Kissorphin-6 (human) of 11.6 nM.
In test [7], LPNYNWNSFGLRF (modifications not checked) [Kisspeptin-13, Q15726 109-121] gave an LHRH release from mouse GT1 cells of 4 fold.
